Calls of active or inactive are those of the source. The calls are words filed in the database; no cut-off is given here.
Legend:
[1] = Displacement of [125I]-IMPY from amyloid beta (1 to 42) after 2 hrs by gamma counting
[2] = organism: Mus musculus; assay: Binding affinity to beta-amyloid in APP/PS1 transgenic C57 mouse brain at 5 uCi/[…] after 1 hr by autoradiography; assay type: tissue-based; settings: tested as the 125I-labelled form
[3] = tested on: Spleen; assay: Biodistribution in ddY mouse spleen at 0.9 uCi, iv after 30 mins by gamma counting; assay type: ADME, organism-based; settings: in vivo, 0.5 h
[4] = tested on: Liver; assay: Biodistribution in ddY mouse liver at 0.9 uCi, iv after 120 mins by gamma counting; assay type: ADME, organism-based; settings: in vivo, 2 h
[5] = tested on: Brain; assay: Ratio of drug level in brain after 2 mins to drug level in brain after 30 mins ddY mouse at 0.9 uCi, iv; assay type: ADME, organism-based; settings: in vivo
[6] = tested on: Heart; assay: Biodistribution in ddY mouse heart at 0.9 uCi, iv after 30 mins by gamma counting; assay type: ADME, organism-based; settings: in vivo, 0.5 h
[7] = tested on: Heart; assay: Biodistribution in ddY mouse heart at 0.9 uCi, iv after 2 mins by gamma counting; assay type: ADME, organism-based; settings: in vivo
[8] = tested on: Stomach; assay: Biodistribution in ddY mouse stomach assessed per organ at 0.9 uCi, iv after 15 mins by gamma counting; assay type: ADME, organism-based; settings: in vivo, 0.25 h
[9] = tested on: Mus musculus; assay: Biodistribution in ddY mouse thyroid assessed per organ at 0.9 uCi, iv after 120 mins by gamma counting; assay type: ADME, organism-based, Thyroid gland; settings: in vivo, 2 h
[10] = tested on: Intestine; assay: Biodistribution in ddY mouse intestine at 0.9 uCi, iv after 15 mins by gamma counting; assay type: ADME, organism-based; settings: in vivo, 0.25 h
[11] = tested on: Heart; assay: Biodistribution in ddY mouse heart at 0.9 uCi, iv after 120 mins by gamma counting; assay type: ADME, organism-based; settings: in vivo, 2 h
[12] = tested on: Stomach; assay: Biodistribution in ddY mouse stomach assessed per organ at 0.9 uCi, iv after 30 mins by gamma counting; assay type: ADME, organism-based; settings: in vivo, 0.5 h
[13] = tested on: Blood; assay: Biodistribution in ddY mouse blood at 0.9 uCi, iv after 60 mins by gamma counting; assay type: ADME, organism-based; settings: in vivo, 1 h
[14] = tested on: Kidney; assay: Biodistribution in ddY mouse kidney at 0.9 uCi, iv after 60 mins by gamma counting; assay type: ADME, organism-based; settings: in vivo, 1 h
[15] = tested on: Spleen; assay: Biodistribution in ddY mouse spleen at 0.9 uCi, iv after 2 mins by gamma counting; assay type: ADME, organism-based; settings: in vivo
[16] = tested on: Spleen; assay: Biodistribution in ddY mouse spleen at 0.9 uCi, iv after 15 mins by gamma counting; assay type: ADME, organism-based; settings: in vivo, 0.25 h
[17] = tested on: Liver; assay: Biodistribution in ddY mouse liver at 0.9 uCi, iv after 30 mins by gamma counting; assay type: ADME, organism-based; settings: in vivo, 0.5 h
[18] = tested on: Intestine; assay: Biodistribution in ddY mouse intestine at 0.9 uCi, iv after 2 mins by gamma counting; assay type: ADME, organism-based; settings: in vivo
[19] = tested on: Brain; assay: Biodistribution in ddY mouse brain at 0.9 uCi, iv after 15 mins by gamma counting; assay type: ADME, organism-based; settings: in vivo, 0.25 h
[20] = tested on: Brain; assay: Biodistribution in ddY mouse brain at 0.9 uCi, iv after 2 mins by gamma counting; assay type: ADME, organism-based; settings: in vivo
[21] = tested on: Heart; assay: Biodistribution in ddY mouse heart at 0.9 uCi, iv after 15 mins by gamma counting; assay type: ADME, organism-based; settings: in vivo, 0.25 h
[22] = tested on: Lung; assay: Biodistribution in ddY mouse lung at 0.9 uCi, iv after 2 mins by gamma counting; assay type: ADME, organism-based; settings: in vivo
[23] = tested on: Lung; assay: Biodistribution in ddY mouse lung at 0.9 uCi, iv after 30 mins by gamma counting; assay type: ADME, organism-based; settings: in vivo, 0.5 h
[24] = tested on: Spleen; assay: Biodistribution in ddY mouse spleen at 0.9 uCi, iv after 60 mins by gamma counting; assay type: ADME, organism-based; settings: in vivo, 1 h
[25] = tested on: Stomach; assay: Biodistribution in ddY mouse stomach assessed per organ at 0.9 uCi, iv after 2 mins by gamma counting; assay type: ADME, organism-based; settings: in vivo
[26] = tested on: Stomach; assay: Biodistribution in ddY mouse stomach assessed per organ at 0.9 uCi, iv after 120 mins by gamma counting; assay type: ADME, organism-based; settings: in vivo, 2 h
[27] = tested on: Mus musculus; assay: Biodistribution in ddY mouse thyroid assessed per organ at 0.9 uCi, iv after 2 mins by gamma counting; assay type: ADME, organism-based, Thyroid gland; settings: in vivo
[28] = tested on: Mus musculus; assay: Biodistribution in ddY mouse thyroid assessed per organ at 0.9 uCi, iv after 60 mins by gamma counting; assay type: ADME, organism-based, Thyroid gland; settings: in vivo, 1 h
[29] = tested on: Lung; assay: Biodistribution in ddY mouse lung at 0.9 uCi, iv after 60 mins by gamma counting; assay type: ADME, organism-based; settings: in vivo, 1 h
[30] = tested on: Blood; assay: Biodistribution in ddY mouse blood at 0.9 uCi, iv after 120 mins by gamma counting; assay type: ADME, organism-based; settings: in vivo, 2 h
[31] = tested on: Brain; assay: Biodistribution in ddY mouse brain at 0.9 uCi, iv after 60 mins by gamma counting; assay type: ADME, organism-based; settings: in vivo, 1 h
[32] = tested on: Intestine; assay: Biodistribution in ddY mouse intestine at 0.9 uCi, iv after 120 mins by gamma counting; assay type: ADME, organism-based; settings: in vivo, 2 h
[33] = tested on: Kidney; assay: Biodistribution in ddY mouse kidney at 0.9 uCi, iv after 30 mins by gamma counting; assay type: ADME, organism-based; settings: in vivo, 0.5 h
[34] = tested on: Stomach; assay: Biodistribution in ddY mouse stomach assessed per organ at 0.9 uCi, iv after 60 mins by gamma counting; assay type: ADME, organism-based; settings: in vivo, 1 h
[35] = tested on: Kidney; assay: Biodistribution in ddY mouse kidney at 0.9 uCi, iv after 120 mins by gamma counting; assay type: ADME, organism-based; settings: in vivo, 2 h
[36] = tested on: Intestine; assay: Biodistribution in ddY mouse intestine at 0.9 uCi, iv after 60 mins by gamma counting; assay type: ADME, organism-based; settings: in vivo, 1 h
[37] = tested on: Liver; assay: Biodistribution in ddY mouse liver at 0.9 uCi, iv after 60 mins by gamma counting; assay type: ADME, organism-based; settings: in vivo, 1 h
[38] = tested on: Brain; assay: Biodistribution in ddY mouse brain at 0.9 uCi, iv after 30 mins by gamma counting; assay type: ADME, organism-based; settings: in vivo, 0.5 h
[39] = tested on: Lung; assay: Biodistribution in ddY mouse lung at 0.9 uCi, iv after 120 mins by gamma counting; assay type: ADME, organism-based; settings: in vivo, 2 h
[40] = tested on: Blood; assay: Biodistribution in ddY mouse blood at 0.9 uCi, iv after 2 mins by gamma counting; assay type: ADME, organism-based; settings: in vivo
[41] = tested on: Brain; assay: Biodistribution in ddY mouse brain at 0.9 uCi, iv after 120 mins by gamma counting; assay type: ADME, organism-based; settings: in vivo, 2 h
[42] = tested on: Blood; assay: Biodistribution in ddY mouse blood at 0.9 uCi, iv after 15 mins by gamma counting; assay type: ADME, organism-based; settings: in vivo, 0.25 h
[43] = tested on: Intestine; assay: Biodistribution in ddY mouse intestine at 0.9 uCi, iv after 30 mins by gamma counting; assay type: ADME, organism-based; settings: in vivo, 0.5 h
[44] = tested on: Kidney; assay: Biodistribution in ddY mouse kidney at 0.9 uCi, iv after 15 mins by gamma counting; assay type: ADME, organism-based; settings: in vivo, 0.25 h
[45] = tested on: Liver; assay: Biodistribution in ddY mouse liver at 0.9 uCi, iv after 2 mins by gamma counting; assay type: ADME, organism-based; settings: in vivo
[46] = tested on: Lung; assay: Biodistribution in ddY mouse lung at 0.9 uCi, iv after 15 mins by gamma counting; assay type: ADME, organism-based; settings: in vivo, 0.25 h
[47] = tested on: Kidney; assay: Biodistribution in ddY mouse kidney at 0.9 uCi, iv after 2 mins by gamma counting; assay type: ADME, organism-based; settings: in vivo
[48] = tested on: Spleen; assay: Biodistribution in ddY mouse spleen at 0.9 uCi, iv after 120 mins by gamma counting; assay type: ADME, organism-based; settings: in vivo, 2 h
[49] = tested on: Mus musculus; assay: Biodistribution in ddY mouse thyroid assessed per organ at 0.9 uCi, iv after 30 mins by gamma counting; assay type: ADME, organism-based, Thyroid gland; settings: in vivo, 0.5 h
[50] = tested on: Mus musculus; assay: Biodistribution in ddY mouse thyroid assessed per organ at 0.9 uCi, iv after 15 mins by gamma counting; assay type: ADME, organism-based, Thyroid gland; settings: in vivo, 0.25 h
[51] = tested on: Blood; assay: Biodistribution in ddY mouse blood at 0.9 uCi, iv after 30 mins by gamma counting; assay type: ADME, organism-based; settings: in vivo, 0.5 h
[52] = tested on: Heart; assay: Biodistribution in ddY mouse heart at 0.9 uCi, iv after 60 mins by gamma counting; assay type: ADME, organism-based; settings: in vivo, 1 h
[53] = tested on: Liver; assay: Biodistribution in ddY mouse liver at 0.9 uCi, iv after 15 mins by gamma counting; assay type: ADME, organism-based; settings: in vivo, 0.25 h
[54] = Lipophilicity, log D of the compound; assay type: physicochemical; settings: octanol/water

With `O=C(c1ccc([N+](=O)[O-])cc1)c1cc2cc(I)ccc2o1` the Ki [1] was > 1000 nM.

A Ki [1] of 8.8 nM was found for `CN(C)c1ccc(C(=O)c2cc3cc(Br)ccc3o2)cc1` in this work.

With `O=C(c1ccc([N+](=O)[O-])cc1)c1cc2cc(Br)ccc2o1` the Ki [1] was > 1000 nM.

A Ki [1] of 133 nM was found for `Nc1ccc(C(=O)c2cc3cc(I)ccc3o2)cc1` in this work.

With `CN(C)c1ccc(C(=O)c2cc3cc(I)ccc3o2)cc1` the Ki [1] was 6.6 nM and the Activity [2] was “Active”.

A Drug uptake [3] of 0.94 % ID/g, a Drug uptake [4] of 3.59 % ID/g and a Ratio [5] of 2.34 were found for `CN(C)c1ccc(C(=O)c2cc3cc([125I])ccc3o2)cc1` in this work. The Drug uptake [6] was 1.15 % ID/g, the Drug uptake [7] was 7.01 % ID/g and the Drug uptake [8] was 1.54 %ID. It also gave a Drug uptake [9] of 0.8 %ID, a Drug uptake [10] of 11.77 % ID/g and a Drug uptake [11] of 0.49 % ID/g. It also gave a Drug uptake [12] of 2.6 %ID, a Drug uptake [13] of 0.82 % ID/g and a Drug uptake [14] of 1.9 % ID/g. For the same compound, the Drug uptake [15] was 2.75 % ID/g, the Drug uptake [16] was 1.59 % ID/g and the Drug uptake [17] was 6.7 % ID/g. It also gave a Drug uptake [18] of 3.14 % ID/g, a Drug uptake [19] of 2.38 % ID/g and a Drug uptake [20] of 3.53 % ID/g. For the same compound, the Drug uptake [21] was 1.45 % ID/g, the Drug uptake [22] was 7.34 % ID/g and the Drug uptake [23] was 1.61 % ID/g. For the same compound, the Drug uptake [24] was 0.66 % ID/g, the Drug uptake [25] was 0.95 %ID and the Drug uptake [26] was 3.76 %ID. It also gave a Drug uptake [27] of 0.02 %ID, a Drug uptake [28] of 0.46 %ID and a Drug uptake [29] of 0.94 % ID/g. The Drug uptake [30] was 0.63 % ID/g, the Drug uptake [31] was 0.87 % ID/g and the Drug uptake [32] was 25.19 % ID/g. For the same compound, the Drug uptake [33] was 4.28 % ID/g, the Drug uptake [34] was 3.1 %ID and the Drug uptake [35] was 1.64 % ID/g. It also gave a Drug uptake [36] of 20.88 % ID/g, a Drug uptake [37] of 5.09 % ID/g and a Drug uptake [38] of 1.51 % ID/g. The Drug uptake [39] was 0.79 % ID/g, the Drug uptake [40] was 2.56 % ID/g and the Drug uptake [41] was 0.41 % ID/g. The Drug uptake [42] was 1.16 % ID/g, the Drug uptake [43] was 21.81 % ID/g and the Drug uptake [44] was 3.84 % ID/g. For the same compound, the Drug uptake [45] was 16.19 % ID/g, the Drug uptake [46] was 2.2 % ID/g and the Drug uptake [47] was 10.26 % ID/g. The Drug uptake [48] was 0.43 % ID/g, the Drug uptake [49] was 0.18 %ID and the Drug uptake [50] was 0.05 %ID. The Drug uptake [51] was 1.07 % ID/g, the Drug uptake [52] was 0.74 % ID/g and the Drug uptake [53] was 11 % ID/g. For the same compound, the logD [54] was 4.4.

A Ki [1] of 44.9 nM was found for `CNc1ccc(C(=O)c2cc3cc(Br)ccc3o2)cc1` in this work.

For `CNc1ccc(C(=O)c2cc3cc(I)ccc3o2)cc1`, the Ki [1] was 34.5 nM and the Activity [2] was “Active”.

A Ki [1] of 157 nM was found for `Nc1ccc(C(=O)c2cc3cc(Br)ccc3o2)cc1` in this work.
